Experimental data: US20260137665A1, “COMBINATION THERAPIES FOR THE TREATMENT OF CANCER” (AADI Bioscience, Inc., priority 2022, published 2026)

Experiments:
[1] = tested on: UMUC3 human bladder cancer xenografts; assay: Anti-tumor activity in mice bearing UMUC3 tumor xenografts
Description: UMUC3 is a human transitional cell carcinoma (bladder cancer) cell line harboring KRAS^G12C and PTEN null mutations. PTEN is a negative regulator or mTOR activity (UMUC3 mutation profile: KRAS^G12C, PTEN^null, TP53^F113C, ATM^Q2800fs, CDKN2A^null, UGT2B17^null.)
Briefly, female athymic mice were implanted with NCI-H2122 cells in their right flanks. When tumor volume reached approximately 100-150 mm^3, animals were randomly divided into nine groups (n=6/group), and administered with saline (control), a single agent drug, or a drug combination shown in Table F below according to the administration routes, dosages and administration frequencies shown in Table F below.

[2] = tested on: NCI-H2030 human non-small cell lung cancer xenografts; assay: Anti-tumor activity in mice bearing NCI-H2030 tumor xenografts; assay type: in vivo; conditions: for Response Rate % (Tumor Regression >−30%): NCI-H2030-xenografted mice, doses per Table A1; for tumor growth inhibition (TGI): NCI-H2030 xenografts, female athymic mice, n=3/group, doses and routes per Table A1
Description: (NCI-H2030 mutation profile: KRAS^G12C, STK11^E317*, TP53^G262V.) The KRAS G12C mutation, which is common in NSCLC, leads to constitutive activation of the tumor growth-promoting RAS/MAPK signaling pathway. STK11 is a negative regulator of mTOR signaling. The mTOR pathway is often activated in patients with KRAS mutation and contributes to adaptive resistance to KRAS inhibitors.
Female athymic mice were implanted with human NCI-H2030 NSCLC cells in both flanks.

[3] = tested on: NCI-H2122 human non-small cell lung cancer xenografts; assay: Anti-tumor activity in mice bearing NCI-H2122 tumor xenografts; assay type: in vivo; conditions: for Response Rate % (Tumor Regression >−30%): NCI-H2122-xenografted mice, doses per Table D
Description: Next, a similar set of experiments was performed in mice bearing human NCI-H2122 tumor xenografts. NCI-H2122 is a human NSCLC […] cancer cell line that harbors KRAS^G12C and STK11 null (loss of function) mutations.

Structure (SMILES) | mice tumor-free during the study ([1]; UMUC3-xenografted mice, n=6/group) | mice surviving to the end of the study (Day 42) ([1]; UMUC3-xenografted mice, n=6/group, doses per Table F) | Response Rate % (Tumor Regression >−30%) ([1]; UMUC3-xenografted mice, doses per Table F) | tumor growth inhibition (TGI) ([1]; UMUC3 xenografts, female athymic mice, n=6/group, doses and routes per Table F) | Response Rate % (Tumor Regression >−30%) [2] | tumor growth inhibition (TGI) [2] | Response Rate % (Tumor Regression >−30%) [3] | tumor growth inhibition (TGI) ([3]; NCI-H2122 xenografts, female athymic mice, n=5/group, doses and routes per Table D)
C=CC(=O)N1CCN(c2nc(=O)n(-c3c(C)ccnc3C(C)C)c3nc(-c4c(O)cccc4F)c(F)cc23)[C@@H](C)C1 (atropisomer, axis not shown; (M)) [sotorasib, 6-Fluoro-7-(2-fluoro-6-hydroxyphenyl)-(1M)-1-[4-methyl-2-(propan-2-yl)pyridin-3-yl]-4-[(2S)-2-methyl-4-(prop-2-enoyl)piperazin-1-yl]pyrido[2,3-d]pyrimidin-2(1H)-one] | 0/6 | 0/6 | 0% | 100% | 0% | 20% | 0% | 79%
CO[C@H]1C[C@@H]2CC[C@@H](C)[C@@](O)(O2)C(=O)C(=O)N2CCCC[C@H]2C(=O)O[C@H]([C@H](C)C[C@@H]2CC[C@@H](OCCO)[C@H](OC)C2)CC(=O)[C@H](C)/C=C(\C)[C@@H](O)[C@@H](OC)C(=O)[C@H](C)C[C@H](C)/C=C/C=C/C=C/1C [everolimus] | – | – | – | – | 0% | 22% | 10% | –
